From patent US10111885B2, “Compositions and therapeutic methods for the treatment of complement-associated diseases” (Resverlogix Corp., priority 2015, dated 2018)

Columns and labels:
[1] = system: complement C5 protein; assay: Secreted complement protein ELISA, Huh-7 cells; type: cell-based, human; conditions: for C5 secretion, percent maximum reduction in protein levels: Huh-7, 72 h, ± standard deviation
Experimental: (§1) In this example, protein secretion from cells grown in culture in the presence of compound of interest was analyzed by enzyme linked immunosorbent assay (ELISA). In some cases, cultured cells were treated with cytokines and the compound of interest to mimic an inflammatory state. The method can be used to determine the effect of compounds, including those in the present invention, on the secretion of specific proteins from cells grown in culture under basal and cytokine stimulated (i.e. inflammatory) conditions (Table 7, FIGS. 5 and 6).
(§2) Huh-7 cells (JCRB Cell Bank) were introduced to 24-well plates in 500 μL DMEM supplemented with 10% (v/v) FBS, 100 U/mL penicillin, 100 ug/mL streptomycin and 5 ug/mL plasmocin (all reagents from Gibco, except for the former, which comes from Invivogen) at 200 000 cells/well. After 24 h, cells were treated with the compound of interest and/or cytokines in DMEM with 10% FBS containing 0.1% DMSO for a total treatment time of 72 h. Fresh media containing compounds and/or cytokines was introduced in the final 24 h of the experiment. At harvest, media were collected, debris was removed by brief centrifugation, and ELISA assays for the indicated proteins were performed as per the manufacturer's protocol. To correct for differences in cell numbers, values obtained for complement proteins were normalized to values for transferrin. HepG2 cells (ATCC) were cultured in MEM containing 10% FBS, 1× non-essential amino acids, 1 mM sodium pyruvate, 2 mM L-glutamine, 100 U/mL penicillin, 100 ug/mL streptomycin and 5 ug/mL plasmocin. Serum amount was reduced to 0.5% when compounds were present. Treatment combinations and timing were as described above for Huh-7 cells. Primary human hepatocytes (CellzDirect/Life Technologies) were plated in collagen coated 96-well plates at 70 000 cells/well, then overlaid with Matrigel™ as recommended by the supplier. Cells were treated with compounds of interest with or without the indicated cytokines for a total of 72 h in the recommended media supplemented with 10% FBS and 0.1% DMSO (v/v). Media were collected for measurements of secreted proteins.
(§3) The ELISA kits for detection of complement C3, C4, C5 and C9 were obtained from AssayPro (St. Charles, Mo.), while the ELISA reagents for transferrin detection were from Bethyl Laboratories (Montgomery, Tex.). Data were collected on a Thermo Scientific Multiskan GO apparatus. Downregulation of expression of components of the complement cascade will result in reduced activity of the pathway and thus will constitute a positive result.

[2] = system: complement C4 protein; assay: Secreted complement protein ELISA, Huh-7 cells; type: cell-based, human; conditions: for C4 secretion, percent maximum reduction in protein levels: Huh-7, 72 h, ± standard deviation
Experimental: as §1, §2, §3

[3] = system: complement C3 protein; assay: Secreted complement protein ELISA, Huh-7 cells; type: cell-based, human; conditions: for C3 secretion, percent maximum reduction in protein levels: Huh-7, 72 h, ± standard deviation
Experimental: as §1, §2, §3

[4] = system: C1S mRNA; assay: Complement gene mRNA expression, TaqMan real-time PCR, Huh-7 cells; type: cell-based; conditions: Homo sapiens; Huh-7, 48 h treatment; read-out: C1S (48 h) mRNA, half maximal inhibitory concentration (IC50)
Text: (§4) In this example, mRNA levels from cultured cells were quantitated. The assay can be used to determine the effect of compound(s) on regulating mRNA levels, including those compounds in the present invention. Complement genes are expressed at high endogenous levels, but their expression can also be stimulated with various cytokines in inflammatory conditions. Experiments in this example target both basal and inflammatory complement gene expression. Compound mediated changes in gene expression and resulting mRNA levels are presented in Tables 2, 3 and 4 as well as FIGS. 1, 2, 3 and 4 below.
(§5) Huh-7 and HepG2 cells are liver-derived cell lines and are models for what can occur in the liver. Huh-7 cells (JCRB Cell Bank) were introduced to 96-well plates (^˜2.5×10^5 per well) in 100 μL DMEM containing 10% (v/v) FBS, 100 U/mL penicillin, 100 ug/mL streptomycin and 5 ug/mL plasmocin (all reagents from Gibco, except for the former, which was obtained from Invivogen). After 24 h, Huh-7 cells were treated with compounds in the same media formulation used for plating, and supplemented with 0.1% DMSO for the amount of time indicated in tables 2, 3, and 4. For select experiments, 24 h post-plating, cells were treated with cytokines and the compound of interest simultaneously, for a total treatment time of 48 h. Alternatively, 24 h after plating, cells were pre-treated with cytokines for 24 h before adding the compound of interest for 48 h. HepG2 cells (ATCC) were cultured in 96-well plates (^˜2.5×10^5 per well) in MEM containing 10% FBS, 1× non-essential amino acids, 1 mM sodium pyruvate, 2 mM L-glutamine, 100 U/mL penicillin, 100 ug/mL streptomycin and 5 ug/mL plasmocin. Serum amount was reduced to 0.5% for treatments with compound or cytokines. Timing of treatment of HepG2 cells with compounds and cytokines was as described for Huh-7 cells. Primary human hepatocytes (CellzDirect/Life Technologies) were plated in collagen coated 96-well plates at 70 000 cells/well, then overlaid with Matrigel™ as recommended by the supplier. Cells were treated with compounds of interest and/or cytokines for the indicated time points in the recommended media supplemented with 0.1% DMSO and 10% FBS (v/v). Cells were harvested by mRNA Catcher PLUS Kit (Life Technologies) followed by real-time PCR using the RNA UltraSense One-Step qRT-PCR System. The level of the mRNA of interest was measured by TaqMan real-time PCR relative to the endogenous control cyclophilin A in the same sample. […]
(§6) Downregulation of expression of components of the complement cascade will result in reduced activity of the pathway and thus will constitute a positive result. […] Table 4 lists the maximum reduction in the indicated mRNA measured in primary human hepatocytes treated with compounds for up to 72 hours. […]

[5] = system: MBL2 mRNA; assay: as above; type: cell-based; conditions: Homo sapiens; Huh-7, 48 h treatment; read-out: MBL2 (48 h) mRNA, half maximal inhibitory concentration (IC50)
Text: as §4, §5, §6

[6] = system: complement C5 protein; assay: Secreted complement protein ELISA, HepG2 cells; type: cell-based, human; conditions: HepG2, 72 h, ± standard deviation
Experimental: as §1, §2, §3

[7] = system: complement C4 protein; assay: Secreted complement protein ELISA, HepG2 cells; type: cell-based, human; conditions: HepG2, 72 h, ± standard deviation
Experimental: as §1, §2, §3

[8] = system: complement C3 protein; assay: Secreted complement protein ELISA, HepG2 cells; type: cell-based, human; conditions: HepG2, 72 h, ± standard deviation
Experimental: as §1, §2, §3

[9] = system: C1S mRNA; assay: Complement gene mRNA expression, TaqMan real-time PCR, HepG2 cells; type: cell-based; conditions: Homo sapiens; HepG2, 48 h treatment; read-out: C1S (48 h) mRNA, half maximal inhibitory concentration (IC50)
Text: as §4, §5, §6

[10] = system: MBL2 mRNA; assay: as above; type: cell-based; conditions: Homo sapiens; HepG2, 48 h treatment; read-out: MBL2 (48 h) mRNA, half maximal inhibitory concentration (IC50)
Text: as §4, §5, §6

[11] = 30 uM, Huh-7 treated simultaneously with IL-6

| Compound | C5 secretion, percent maximum reduction in protein levels ([1]; 0.75 uM) | C4 secretion, percent maximum reduction in protein levels ([2]; 0.75 uM) | C3 secretion, percent maximum reduction in protein levels ([3]; 0.75 uM) | IC50 [4] | IC50 [5] | C5 secretion, percent maximum reduction in protein levels ([6]; 0.75 uM) | C4 secretion, percent maximum reduction in protein levels ([7]; 0.75 uM) | C3 secretion, percent maximum reduction in protein levels ([8]; 0.75 uM) | IC50 [9] | IC50 [10] | C5 secretion, percent maximum reduction in protein levels ([1]; 30 uM) | secretion of C5 protein (FIG. 5) [1, 11] | C4 secretion, percent maximum reduction in protein levels ([2]; 30 uM) | secretion of C4 protein (FIG. 5) [2, 11] | C3 secretion, percent maximum reduction in protein levels ([3]; 30 uM) | secretion of C3 protein (FIG. 5) [3, 11] | C5 secretion, percent maximum reduction in protein levels ([6]; 30 uM) | C4 secretion, percent maximum reduction in protein levels ([7]; 30 uM) | C3 secretion, percent maximum reduction in protein levels ([8]; 30 uM) |
| --- | --- | --- | --- | --- | --- | --- | --- | --- | --- | --- | --- | --- | --- | --- | --- | --- | --- | --- | --- |
| Cc1sc2c(c1C)C(c1ccc(Cl)cc1)=N[C@@H](CC(=O)OC(C)(C)C)c1nnc(C)n1-2 [JQ1, (S)-tert-butyl 2-(4-(4-chlorophenyl)-2,3,9-trimethyl-6H-thieno[3,2-f][1,2,4]triazolo[4,3-a][1,4]diazepin-6-yl)acetate, reference compound] | 50 ± 13% | 81 ± 6% | 99 ± 1% | 0.3 µM | 0.16 µM | 82 ± 7% | 81 ± 9% | 54 ± 5% | 0.12 µM | 30 nM |  |  |  |  |  |  |  |  |  |
| COc1cc(OC)c2c(=O)[nH]c(-c3cc(C)c(OCCO)c(C)c3)nc2c1 [RVX000222, 2-(4-(2-hydroxyethoxy)-3,5-dimethylphenyl)-5,7-dimethoxyquinazolin-4(3H)-one] |  |  |  | 18.9 µM | 16.3 µM |  |  |  | 9.56 µM | 3880 nM | 53 ± 7% | reduces secretion | 79 ± 3% | reduces secretion | 87 ± 9% | reduces secretion | 77 ± 4% | 65 ± 5% | 34 ± 5% |
